Source: US20100172854A1, “ANTIBACTERIAL FORMULATIONS” (priority 2007, published 2010)
In brackets after ≈: the same amount, converted by molar mass.

Assays:
[1] = system: Staphylococcus xylosus ATCC 29971; assay: MBC assay; assay type: cell-based
Method: (§1) The staphylococci were cultured and maintained on Mueller-Hinton Medium (agar and broth) at pH 7.2; cultures were incubated aerobically at 37° C. for 19-20 hours.
(§2) This assay, normally carried out after an MIC assay, determines the minimum concentration of a compound that is lethal to the micro-organism being tested.
(§3) These samples were then individually sub-cultured on antibiotic-free agar medium, under the incubation conditions described above. Following incubation they were examined visually for microbial growth.

[2] = system: Staphylococcus warneri ATCC 27836; assay: MBC assay; assay type: cell-based
Method: as §1, §2, §3

[3] = system: Staphylococcus cohnii ATCC 29974; assay: MBC assay; assay type: cell-based
Method: as §1, §2, §3

[4] = system: Staphylococcus hominis ATCC 27844; assay: MBC assay; assay type: cell-based
Method: as §1, §2, §3

[5] = system: S. epidermidis NCTC 11047; assay: MBC assay; assay type: cell-based
Method: as §1, §2, §3

[6] = system: S. saprophyticus NCTC 7292; assay: MBC assay; assay type: cell-based
Method: as §1, §2, §3

[7] = system: Staphylococcus capitis ATCC 27840; assay: MBC assay; assay type: cell-based
Method: as §1, §2, §3

[8] = system: Staphylococcus auricularis ATCC 33753; assay: MBC assay; assay type: cell-based
Method: as §1, §2, §3

[9] = system: Staphylococcus simulans ATCC 27848; assay: MBC assay; assay type: cell-based
Method: as §1, §2, §3

[10] = system: Staphylococcus aureus ATCC 12600; assay: MBC assay; assay type: cell-based
Method: as §1, §2, §3

[11] = system: Staphylococcus haemolyticus ATCC 29970; assay: MBC assay; assay type: cell-based
Method: as §1, §2, §3

[12] = system: Staphylococcus aureus ATCC 29213; assay: MBC assay; assay type: cell-based; conditions: S. aureus ATCC 29213
Method: as §1, §2, §3

a range of test bacteria = conditions: compound isolated from Aspergillus fumigatus, believed to be Antioxidant 2246; cited from earlier work

## Cc1cc(Cc2cc(C)cc(C(C)(C)C)c2O)c(O)c(C(C)(C)C)c1 [AO 2246, 2,2′-methylene-bis(4-methyl-6-tert-butylphenol)]
[1]
  MIC/MBC Ratio: 1
[1]; ATCC29971
  MBC: 3.9 µg/mL (≈ 11.5 µM)
[2]
  MIC/MBC Ratio: <0.5
[2]; ATCC27836
  MBC: > 31.2 µg/mL
[3]
  MIC/MBC Ratio: 1
[3]; ATCC29974
  MBC: 3.9 µg/mL (≈ 11.5 µM)
[4]
  MIC/MBC Ratio: 0.25
[4]; ATCC27844
  MBC: 31.2 µg/mL (≈ 91.8 µM)
[5]
  MIC/MBC Ratio: 0.5
[5]; Staphylococcus epidermidis, NCTC11047
  MBC: 7.8 µg/mL (≈ 22.9 µM)
[6]
  MIC/MBC Ratio: 1
[6]; Staphylococcus saprophyticus, NCTC7292
  MBC: 3.9 µg/mL (≈ 11.5 µM)
[7]
  MIC/MBC Ratio: 0.25
[7]; ATCC27840
  MBC: 15.6 µg/mL (≈ 45.8 µM)
[8]
  MIC/MBC Ratio: 0.5
[8]; ATCC33753
  MBC: 3.9 µg/mL (≈ 11.5 µM)
[9]
  MIC/MBC Ratio: 0.5
[9]; ATCC27848
  MBC: 31.2 µg/mL (≈ 91.8 µM)
[10]
  MIC/MBC Ratio: 0.06
[10]; ATCC12600
  MBC: 15.6 µg/mL (≈ 45.8 µM)
[11]
  MIC/MBC Ratio: 1
[11]; ATCC29970
  MBC: 3.9 µg/mL (≈ 11.5 µM)
[12]
  MIC/MBC Ratio: 0.5
[12]; Staphylococcus aureus, ATCC29213
  MBC: 7.8 µg/mL (≈ 22.9 µM)
A range of test bacteria
  in vitro antimicrobial activity: no in vitro antimicrobial activity
